Where a SMILES comes first, the peptide text is derived from it. [ ]: non-standard residue; d: D form. Sta = CC(C)C[C@H](N)[C@@H](O)CC(=O)O

Consider five molecules from patent US20050118226A1, “Methods for treating ACAT-related diseases” (priority 2003, published 2005).

One assay concerns PSAPP mice. The note with it: 250 mg/kg/day orally, 5 weeks; cited from earlier work.
In assay [1] the target is T1, purified recombinant human BACE1 (Homo sapiens, UniProt P56817).
T1 construct: purchased R&D systems
T1 sequence (P56817 46-501): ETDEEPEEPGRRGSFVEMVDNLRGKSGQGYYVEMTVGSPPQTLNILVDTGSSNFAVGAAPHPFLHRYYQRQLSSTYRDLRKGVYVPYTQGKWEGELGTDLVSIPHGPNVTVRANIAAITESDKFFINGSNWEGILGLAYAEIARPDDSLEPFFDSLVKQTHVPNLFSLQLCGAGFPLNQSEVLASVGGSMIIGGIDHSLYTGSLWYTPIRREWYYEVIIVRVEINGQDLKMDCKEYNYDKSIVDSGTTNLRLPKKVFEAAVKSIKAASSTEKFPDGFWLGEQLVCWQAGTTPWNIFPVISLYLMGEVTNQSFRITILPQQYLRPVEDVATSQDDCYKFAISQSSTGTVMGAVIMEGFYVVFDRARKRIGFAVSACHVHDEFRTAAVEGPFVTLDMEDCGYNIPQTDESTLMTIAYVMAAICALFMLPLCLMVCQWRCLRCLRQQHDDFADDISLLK
Description: In vitro fluorometric BACE1 activity assay. It counts as biochemical. The note with it: increasing amounts of compound, 2 hours. As for the experimental part: A fluorometric β-secretase activity kit was used for detecting BACE1 activity in vitro. Reaction was done according to the manufacturer's instructions with slight modifications. Briefly, 1 μg of purified recombinant human BACE1 (R&D systems) was resuspended in 10 μl of 1× cell extraction buffer (R&D systems) and incubated with EDANS/DABCYL-[…] substrate peptide in the absence or presence of indicated account of CP-113,818 for 2 hours. Released EDANS fluorescence was measured by a fluorescent plate reader (Analyst AD, LJL Biosystems). As a negative control, a specific β-secretase inhibitor, GL-189 (Calbiochem) was added to one of the samples with the indicated concentration.

The test system of another assay is γ-secretase. As to the kind of experiment: In vitro generation of APP intracellular domain (AICD), γ-secretase activity assay on CHO cell membrane fractions. It counts as biochemical, Chinese hamster. The following applies: CHO cell (overexpressing APP) membrane fractions, increasing amounts of compound. The procedure: Membrane preparation and in vitro generation of AICD were performed as described (Gu et al., 2001; Kim et al., 2002). P2 membrane fractions were prepared from CHO cells overexpressing wild type APP and resuspended in Buffer H (20 mM HEPES, 150 mM NaCl, 10% glycerol, 5 mM EDTA, pH 7.4) with protease inhibitors. In vitro cleavage experiments were performed by incubating the membrane fractions at 0° C. or 37° C. for 1 hour with the indicated amounts of CP-113,818. As a negative control, a specific γ-secretase inhibitor, L-685,458, was added to one of the samples.

The subject of the next assay is CHO cells. The following applies: 4 μM; cited from earlier work.
For another assay, the system named is Tg2576 mice. The following applies: 12 month-old female Tg2576 mice, 3 weeks; cited from earlier work.

Consider `O=C(O)c1ccc(CCN2CCN(C/C=C/c3ccc(Cl)cc3)CC2)cc1` [BM15.766], for which, in the assay with PSAPP mice, the “reduction of amyloid load” value is listed as 53%, the “reduction of formic acid-extracted Aβ40” value is listed as 58% and the “reduction of formic acid-extracted Aβ42” value is listed as 48%.
Regarding `CC(C)C[C@H](NC(=O)[C@H](CC(N)=O)NC(=O)[C@@H](NC(=O)[C@@H](N)CCC(=O)O)C(C)C)[C@@H](O)CC(=O)N[C@H](C(=O)N[C@@H](C)C(=O)N[C@@H](CCC(=O)O)C(=O)N[C@@H](Cc1ccccc1)C(N)=O)C(C)C` [GL-189] (H-EVN[Sta]VAEF-NH2), in assay [1], the “effect on BACE1 activity in vitro” value is “significantly reduces BACE1 activity”.
For the molecule `CC(C)C[C@H](NC(=O)[C@H](Cc1ccccc1)C[C@@H](O)[C@H](Cc1ccccc1)NC(=O)OC(C)(C)C)C(=O)N[C@@H](Cc1ccccc1)C(N)=O` [L-685,458], the “effect on γ-secretase activity (AICD generation) in vitro” value in the assay with γ-secretase is recorded as “inhibits APP intracellular domain (AICD) generation”.
For the molecule `CC(C)c1cc(C(C)C)c(CC(=O)NS(=O)(=O)Oc2c(C(C)C)cccc2C(C)C)c(C(C)C)c1` [avasimibe], the “inhibition of Aβ generation” value with CHO cells is on record as “approximately 60%”.
As for `CC[C@H](C)C(=O)O[C@H]1C[C@@H](C)C=C2C=C[C@H](C)[C@H](CC[C@@H]3C[C@@H](O)CC(=O)O3)[C@H]21` [lovastatin], in the assay with Tg2576 mice, the “Aβ pathology in female animals” value is on record as “increasing Aβ pathology”.
